Experiments:
Assay type in all cases: cell-based
[1] = tested on: β3 GABAAR subunit in human U87 glioma; test: Cell surface ELISA of β3 GABAAR subunit in U87 glioma; settings: hUII 10^−8 M, 30 min, 37°C, at least 3 independent experiments in triplicates
Method: The human cell line from glioblastoma U87 was obtained from the American Type Culture Collection (LGC Standards, Molsheim, France). U87 cells were maintained in DMEM containing 10% FBS and 1% sodium pyruvate. NHA-Astrocytes (Lonza, Walkersville, MD, USA) were cultivated in DMEM culture medium supplemented with 2 mM glutamine, 5 mM HEPES, 1% non essential amino acids, 1% sodium pyruvate, B27, 25 ng/ml EGF, 1% of the antibiotic-antimycotic solution and 10% FBS. All cells were incubated at 37°C in a humidified atmosphere containing 5% CO2. Culture media were replaced every three days.
Cells were plated at 50 000 cells/well in 96-well plates coated with 0.1 mg/ml poly-L-ornithine (Sigma-Aldrich). […] Cells were fixed with 4% PFA in PBS for 5 min at RT, washed in PBS, and then permeabilized in 0.05% triton X100 (only for permeabilized cells) and non specific binding were blocked with PBS containing 1% FBS for 30 min at RT. […] The cells were washed four times with PBS, a colorimetric alkaline phosphatase substrate was added (SuperSignal ELISA, Thermo scientific, Fisher) and the resulting color reaction was measured using a Viktor multilabel plate reader (PerkinElmer, Courtaboeuf, France). Background absorbance from samples transfected with non-tagged receptors or from cells without first antibodies were systematically measured. […]

[2] = tested on: α2β3 GABAAR co-expressed with human UT; test: Patch-clamp of Iso-evoked current in CHO-UT expressing α2β3 GABAAR; settings: hUII 10^−13 to 10^−7 M; Iso 10^−4 M, 2 s; −60 mV
Method: CHO-K1 cell lines were obtained from American Type Culture Collection (Manassas, VA, USA). The human UT stable CHO (CHO-UT) was generously provided by Dr Christophe Dubessy (Inserm, Rouen University, France) et generated by CHO electroporation with 20 µg pIRES-neo2-UT DNA and 500 µg sterile sonicated salmon sperm DNA using the EasyJect One electroporation system (Equibio, Angleur, Belgium), followed by repetitive rounds of limiting dilution of cells in G-418 (400 µg/ml) for selection. Normal or stable CHO was grown in Ham-F12 medium supplemented with 10% FBS, 1% antibiotic-antimicotic solution and 2 mM glutamine, at 37°C in a humidified incubator with an atmosphere of 5% CO2. The stable CHO-UT medium was supplemented with the antibiotic G-418 (40 µg/ml).
For transfection, cells were trypsinized (0.05%), triturated in HamF-12 containing 10% FBS media, pelleted by centrifugation, resuspended in 100 µl solution V for nucleofection by an Amaxa Nucleofector Device (Köln, Germany; set to program U-016). Experiments were performed on normal CHO or on the stable CHO-UT cells and transiently transfected with combinations of cDNA encoding α2β3γ2, α2β3γ1, α2β1γ2, α2β3γ1, α2β3, β3γ2 (4 µg of cDNA total/transfection) GABAAR subunits. Cells were seeded on 14-mm poly-L-lysine-coated glass bottom insert dishes at 5×10^5 cells in a volume of 0.5 ml/dish. […]

γ2^HA GABAAR subunit = test: Cell surface ELISA of γ2^HA GABAAR subunit in CHO-UT^c-myc-α2β3γ2^HA; settings: hUII 10^−8 M, 30 min, 37°C, 5 to 7 independent experiments in triplicates
Method: Cells were plated at 50 000 cells/well in 96-well plates coated with 0.1 mg/ml poly-L-ornithine (Sigma-Aldrich). […] Cells were fixed with 4% PFA in PBS for 5 min at RT, washed in PBS, and then permeabilized in 0.05% triton X100 (only for permeabilized cells) and non specific binding were blocked with PBS containing 1% FBS for 30 min at RT. The first rat anti-HA monoclonal antibody (0.5 µg/ml, 3F10 clone, Roche, Meylan, France or 1 µg/ml, Santa-Cruz), mouse anti-c-myc monoclonal antibody (1.33 µg/ml, 9E10 clone, Roche), rabbit anti-UT antibody (1 µg/ml, Tebu, Santa-Cruz) or rabbit anti-β3 antibody (1∶200, Abcam, Paris, France), were added for 1 h30 at RT. Incubation with goat anti-rat (Thermo scientific, Fisher, Brebières, France), goat anti-mouse (Santa Cruz) or goat anti-rabbit (Tebu, Santa Cruz) conjugated alkaline phosphatase diluted at 1∶1000 in PBS/FBS was carried out for 30 min at RT. The cells were washed four times with PBS, a colorimetric alkaline phosphatase substrate was added (SuperSignal ELISA, Thermo scientific, Fisher) and the resulting color reaction was measured using a Viktor multilabel plate reader (PerkinElmer, Courtaboeuf, France). Background absorbance from samples transfected with non-tagged receptors or from cells without first antibodies were systematically measured. […] All experiments were done at least three times in triplicates.

## ETPDCFWKYCV (disulfide) [hUII, human urotensin II, synthesized by solid phase methodology]
[1]
  β3-associated GABAAR subunit internalization, without UT319–389: 20%
[2]
  Inhibitory effect on Iso-evoked current, α2β3: totally ineffective
γ2^HA GABAAR subunit
  Loss of γ2^HA subunit from the cell surface: approximately 40%
